Values after ≈ are worked out from the molar mass of the structure shown. Values joined by “and” are separate entries in the source; they are usually repeats but may differ in a detail not shown here. Equal values may be shown once. “Also recorded” adds a separate entry of the source. Read-outs that look alike come from different tables or passages of the source. One block for each compound: values may come before it.
Tests used:
K. pneumoniae ATCC 29665 = assay: MIC by broth microdilution; assay type: cell-based, Klebsiella pneumoniae; settings: read-out: MIC K. pneumoniae ATCC 29665
Method: (§1) MIC was determined by broth microdilution. Single-colony cultures were grown to exponential phase (OD600 of 0.5) aerobically at 37 °C. In case of strains from the Keio collection, 50 µg ml^−1 kanamycin was supplemented to the media to ascertain a homogeneous population. The bacterial suspensions were diluted 100-fold in CAMHB and 50 µl was added to a twofold serial dilution series of test compounds (50 µl per well) in polypropylene 96-well microtitre plates to reach a volume of 100 µl. The plates were sealed with breathable membranes and incubated overnight at 37 °C with constant shaking (600 r.p.m.).

HepG2 = assay: Cytotoxicity assay (MTT); assay type: cell-based, human; settings: for IC50: MTT, 24 h
Method: (§2) HepG2 (ATCC HB-8065) and HEK293T (ATCC CRL-3216) cell lines were cultured at 37 °C and 7% CO2 in Dulbecco’s modified Eagle medium (Sigma-Aldrich, D6546) with GlutaMax, penicillin (100 µg ml^−1), streptomycin (100 µg ml^−1) and 10% fetal calf serum. Cells were passaged twice a week by first detaching using 0.05% trypsin in phosphate-buffered saline (PBS) and then diluting to appropriate confluence. Compound cytotoxicity was evaluated using the standard (3-(4,5-dimethylthiazol-2-yl)-2,5-diphenyltetrazolium bromide (MTT) assay protocol (MTT assay protocol for cell viability and proliferation, Merck) with slight changes. HepG2 and HEK293T cells were seeded at a density of 1.5 × 10^4 cells per well in a clear 96-well tissue culture treated plate in a final volume of 100 µl in Dulbecco’s modified Eagle medium, supplemented with fetal bovine serum (1%), GlutaMax and penicillin/streptomycin. Cells were incubated for 24 h at 37 °C, 7% CO2 to allow cells to attach to the plates. […] Incubation was done for 24 h at 37 °C, 7% CO2. After the incubation, MTT was added to each well at a final concentration of 0.40 mg ml^−1. The plates were then incubated for 2 h at 37 °C, 7% CO2. Medium was carefully removed via suction, and purple formazan crystals were resuspended in 100 µl DMSO. Absorbance was read at 570 nm using a Clariostar plate reader with MARS (V4.20). The data were then analysed with GraphPad Prism software. IC50 values were calculated using non-linear fitted curve with variable slope settings, with values adjusted for background (plotted absorbance (ABS)sample = (ABSsample – ABSbackground) / (ABSvehicle – ABSbackground)). Technical triplicates for each condition were used, along with biological duplicates.

HEK293T = assay: Cytotoxicity assay (MTT); assay type: cell-based, human; settings: for MTT data (raw readout): HEK293T
Method: as §2

E. coli W3110 = assay: MIC by broth microdilution; assay type: cell-based, Escherichia coli; settings: for MIC: broth microdilution, read-out: MIC E. coli W3110
Method: as §1

[1] = Klebsiella pneumoniae, ATCC29665, broth microdilution

MIC (K. pneumoniae ATCC 29665; [1]): 12.5 µM (≈ 5.78 µg/mL)
MIC (E. coli W3110; Escherichia coli, W3110, WT): 3.1 µM (≈ 1.43 µg/mL)
Structure (SMILES): O=S(=O)(NC[C@@H]1CC[C@H](c2ccc(-c3ccc(F)nc3)cc2)N1)c1cccc2cnccc12 [Compound 96]
MTT data (raw readout) (HepG2; HepG2, 0.023 uM, experiment n = 2, technical triplicates): 0.335 and 0.356 and 0.336
MTT data (raw readout) (HepG2; HepG2, 0.068 uM, experiment n = 1, technical triplicates): 0.697 and 0.415 and 0.444
MTT data (raw readout) (HepG2; HepG2, 0.068 uM, experiment n = 2, technical triplicates): 0.314 and 0.274 and 0.280
MTT data (raw readout) (HepG2; HepG2, 0.21 uM, experiment n = 1, technical triplicates): 0.410 and 0.391 and 0.401
MTT data (raw readout) (HepG2; HepG2, 0.21 uM, experiment n = 2, technical triplicates): 0.286 and 0.328 and 0.321
MTT data (raw readout) (HepG2; HepG2, 0.62 uM, experiment n = 1, technical triplicates): 0.318 and 0.339 and 0.325
MTT data (raw readout) (HepG2; HepG2, 0.62 uM, experiment n = 2, technical triplicates): 0.277 and 0.335 and 0.337
MTT data (raw readout) (HepG2; HepG2, 1.85 uM, experiment n = 1, technical triplicates): 0.449 and 0.459 and 0.475
MTT data (raw readout) (HepG2; HepG2, 1.85 uM, experiment n = 2, technical triplicates): 0.324 and 0.290 and 0.321
MTT data (raw readout) (HepG2; HepG2, 5.6 uM, experiment n = 1, technical triplicates): 0.376 and 0.380 and 0.428
MTT data (raw readout) (HepG2; HepG2, 5.6 uM, experiment n = 2, technical triplicates): 0.305 and 0.314 and 0.321
MTT data (raw readout) (HepG2; HepG2, 16.7 uM, experiment n = 1, technical triplicates): 0.356 and 0.341 and 0.324
MTT data (raw readout) (HepG2; HepG2, 16.7 uM, experiment n = 2, technical triplicates): 0.281 and 0.283 and 0.288
MTT data (raw readout) (HepG2; HepG2, 50 uM, experiment n = 1, technical triplicates): 0.302 and 0.347 and 0.370
MTT data (raw readout) (HepG2; HepG2, 50 uM, experiment n = 2, technical triplicates): 0.208 and 0.219 and 0.229
IC50 (HepG2; Homo sapiens, HepG2, 24 h): > 100 µM
IC50 (HepG2): > 50 µM
MTT data (raw readout) (HEK293T; 0.023 uM, experiment n = 1, technical triplicates): 1.310 and 1.426 and 1.382
MTT data (raw readout) (HEK293T; 0.023 uM, experiment n = 2, technical triplicates): 1.005 and 1.055 and 0.974
MTT data (raw readout) (HEK293T; 0.068 uM, experiment n = 1, technical triplicates): 1.261 and 1.196 and 1.228
MTT data (raw readout) (HEK293T; 0.068 uM, experiment n = 2, technical triplicates): 1.060 and 1.105 and 1.114
MTT data (raw readout) (HEK293T; 0.21 uM, experiment n = 1, technical triplicates): 1.460 and 1.332 and 1.292
MTT data (raw readout) (HEK293T; 0.21 uM, experiment n = 2, technical triplicates): 0.944 and 1.021 and 1.022
MTT data (raw readout) (HEK293T; 0.62 uM, experiment n = 1, technical triplicates): 1.285 and 1.264 and 1.255
MTT data (raw readout) (HEK293T; 0.62 uM, experiment n = 2, technical triplicates): 0.998 and 0.945 and 0.948
MTT data (raw readout) (HEK293T; 1.85 uM, experiment n = 1, technical triplicates): 1.253 and 1.307 and 1.121
MTT data (raw readout) (HEK293T; 1.85 uM, experiment n = 2, technical triplicates): 0.889 and 0.884 and 0.825
MTT data (raw readout) (HEK293T; 5.6 uM, experiment n = 1, technical triplicates): 0.992 and 0.906 and 1.276
MTT data (raw readout) (HEK293T; 5.6 uM, experiment n = 2, technical triplicates): 0.770 and 0.750 and 0.744
MTT data (raw readout) (HEK293T; 16.7 uM, experiment n = 1, technical triplicates): 0.263 and 0.250 and 0.238
MTT data (raw readout) (HEK293T; 16.7 uM, experiment n = 2, technical triplicates): 0.552 and 0.449 and 0.479
MTT data (raw readout) (HEK293T; 50 uM, experiment n = 1, technical triplicates): 0.081 and 0.067 and 0.062
MTT data (raw readout) (HEK293T; 50 uM, experiment n = 2, technical triplicates): 0.360 and 0.319 and 0.325
IC50 (HEK293T; Homo sapiens, HEK-293T, 24 h, MTT): 22 µM
antimicrobial activity (E. coli W3110; relative to parent compound): twofold increase in potency; also recorded: active

MIC (K. pneumoniae ATCC 29665; [1]): > 50 µM
MIC (K. pneumoniae ATCC 29665; broth microdilution): >50 µM
MIC (E. coli W3110; Escherichia coli, W3110, WT): 25 µM (≈ 12.2 µg/mL)
Structure (SMILES): O=S(=O)(NCCNCc1ccc(-c2ccc(Cl)c(Cl)c2)cc1)c1cccc2cnccc12 [Compound 74]

MIC (K. pneumoniae ATCC 29665; [1]): > 50 µM
MIC (K. pneumoniae ATCC 29665; broth microdilution): >50 µM
MIC (E. coli W3110; Escherichia coli, W3110, WT): > 50 µM
MIC (E. coli W3110; WT): >50 µM
Structure (SMILES): O=S(=O)(NCCNCc1ccc(-c2ccc(F)nc2)c(Cl)c1)c1cccc2cnccc12 [Compound 85]

MIC (K. pneumoniae ATCC 29665; [1]): 50 µM (≈ 22.4 µg/mL)
MIC (E. coli W3110; Escherichia coli, W3110, WT): 25 µM (≈ 11.2 µg/mL)
Structure (SMILES): COc1ccccc1-c1ccc(CNCCNS(=O)(=O)c2cccc3cnccc23)cc1 [Compound 73]

MIC (K. pneumoniae ATCC 29665; [1]): 25 µM (≈ 10.5 µg/mL)
MIC (E. coli W3110; Escherichia coli, W3110, WT): 12.5 µM (≈ 5.23 µg/mL)
Structure (SMILES): O=S(=O)(NCCNCc1ccc(-c2ccncc2)cc1)c1cccc2cnccc12 [Compound 65]

MIC (K. pneumoniae ATCC 29665; [1]): > 50 µM
MIC (K. pneumoniae ATCC 29665; broth microdilution): >50 µM
MIC (E. coli W3110; Escherichia coli, W3110, WT): > 50 µM
MIC (E. coli W3110; WT): >50 µM
Structure (SMILES): O=S(=O)(NCCNCc1ccc(-c2cccnc2)nc1)c1cccc2cnccc12 [Compound 79]

MIC (K. pneumoniae ATCC 29665; [1]): 50 µM (≈ 22.1 µg/mL)
MIC (E. coli W3110; Escherichia coli, W3110, WT): 25 µM (≈ 11.1 µg/mL)
Structure (SMILES): N#Cc1ccccc1-c1ccc(CNCCNS(=O)(=O)c2cccc3cnccc23)cc1 [Compound 72]

MIC (K. pneumoniae ATCC 29665; [1]): 25 µM (≈ 10.9 µg/mL)
MIC (E. coli W3110; Escherichia coli, W3110, WT): 12.5 µM (≈ 5.44 µg/mL)
Structure (SMILES): O=S(=O)(NCCNCc1ccc(-c2cccc(F)c2)cc1)c1cccc2cnccc12 [Compound 66]

MIC (K. pneumoniae ATCC 29665; [1]): 25 µM (≈ 10.9 µg/mL)
MIC (E. coli W3110; Escherichia coli, W3110, WT): 12.5 µM (≈ 5.44 µg/mL)
Structure (SMILES): O=S(=O)(NCCNCc1ccc(-c2ccccc2)c(F)c1)c1cccc2cnccc12 [Compound 88]
